Drawing on patent US20070049593A1 (priority 2004, published 2007), this text covers IC50 for 24 compounds.

The target in this assay is T1, HCV polymerase (Hepatitis C virus genotype 1b, UniProt P26663).
T1 construct: a region encoding NS5B (J Virol 1991 March, 65(3), 1105-13, 544 amino acids after deletion of 47 amino acids on the C-terminal); 6xHis (C); made in house; host or cells: Escherichia coli
In words: biochemical. Also on record: species or system HCV BK strain. The gist of the method:
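His-tagged NS5B (BK strain, 47-aa C-terminal deletion, E. coli-expressed) at 0.5 μg/ml copied 5 μg/ml run-off RNA bearing the HCV 3′ UTR with 2 μM UTP plus [3H]UTP, 50 μM ATP/GTP, in pH 7.5 Tris with 5 mM MgCl2, 25 °C, 90 min. TCA-precipitated RNA was counted and IC50 calculated.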

Counter-ions that a name gives are not always drawn. Like-named read-outs stand apart in the source and are kept apart here.

T1 sequence (P26663 2420-2963): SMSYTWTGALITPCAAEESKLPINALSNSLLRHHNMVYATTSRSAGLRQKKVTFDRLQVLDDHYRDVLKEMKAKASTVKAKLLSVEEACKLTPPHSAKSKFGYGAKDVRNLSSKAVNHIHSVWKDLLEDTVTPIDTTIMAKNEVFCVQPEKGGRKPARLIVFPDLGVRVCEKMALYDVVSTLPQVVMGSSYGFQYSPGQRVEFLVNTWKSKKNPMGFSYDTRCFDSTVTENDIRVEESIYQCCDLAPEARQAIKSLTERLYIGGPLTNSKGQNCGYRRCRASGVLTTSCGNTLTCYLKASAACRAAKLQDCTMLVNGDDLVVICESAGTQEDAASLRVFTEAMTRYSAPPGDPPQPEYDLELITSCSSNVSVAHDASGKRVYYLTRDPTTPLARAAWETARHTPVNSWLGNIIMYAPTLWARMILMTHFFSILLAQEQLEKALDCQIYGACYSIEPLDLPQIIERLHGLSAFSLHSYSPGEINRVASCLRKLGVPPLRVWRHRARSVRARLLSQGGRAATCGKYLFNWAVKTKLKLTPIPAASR

With `COc1ccc2c(c1)OCCn1c-2c(C2CCCCC2)c2ccc(C(=O)N[C@@H](Cc3ccc(O)cc3)C(=O)O)cc21` [Example 2-375, (S)-2-[(12-cyclohexyl-3-methoxy-6,7-dihydro-5-oxa-7a-azadibenzo[a,e]azulene-9-carbonyl)amino]-3-(4-hydroxyphenyl)propionic acid], the concentration for half-maximal inhibition (IC50) – broadly, the point on the concentration scale where inhibition reaches its midpoint – is less than 0.1 µM. For the compound `COc1ccc2c(c1)OCCn1c-2c(C2CCCCC2)c2ccc(C(=O)N[C@@H](CCc3ccc(O)cc3)C(=O)O)cc21` [Example 2-376, (S)-2-[(12-cyclohexyl-3-methoxy-6,7-dihydro-5-oxa-7a-azadibenzo[a,e]azulene-9-carbonyl)amino]-4-(4-hydroxyphenyl)butyric acid], the IC50 was less than 0.1 µM. On the same count and under the same terms, the value for `COC(=O)[C@H](Cc1ccc(OCC(=O)OC(C)(C)C)cc1)NC(=O)c1ccc2c(C3CCCCC3)c3n(c2c1)CCOc1cc(OC)ccc1-3` [Example 2-377, methyl (S)-3-(4-tert-butoxycarbonylmethoxyphenyl)-2-[(12-cyclohexyl-3-methoxy-6,7-dihydro-5-oxa-7a-azadibenzo[a,e]azulene-9-carbonyl)amino]propionate] was less than 0.1 µM; that for `COC(=O)[C@H](Cc1ccc(OCC(=O)O)cc1)NC(=O)c1ccc2c(C3CCCCC3)c3n(c2c1)CCOc1cc(OC)ccc1-3` [Example 2-378, methyl (S)-3-(4-carboxymethoxyphenyl)-2-[(12-cyclohexyl-3-methoxy-6,7-dihydro-5-oxa-7a-azadibenzo[a,e]azulene-9-carbonyl)amino]propionate] was less than 0.1 µM; that for `COC(=O)C(CN1CCC(O)CC1)NC(=O)c1ccc2c(C3CCCCC3)c3n(c2c1)CCOc1cc(OC)ccc1-3` (stereo not drawn) [Example 2-379, methyl 2-[(12-cyclohexyl-3-methoxy-6,7-dihydro-5-oxa-7a-azadibenzo[a,e]azulene-9-carbonyl)amino]-3-(4-hydroxypiperidin-1-yl)propionate monohydrochloride] was 0.1 to 1 µM.

For `COc1ccc2c(c1)OCCn1c-2c(C2CCCCC2)c2ccc(C(=O)NC(C)(C)c3nc4cc(F)ccc4[nH]3)cc21` [Example 2-380, N-[1-(5-fluoro-1H-benzimidazol-2-yl)-1-methylethyl]-12-cyclohexyl-3-methoxy-6,7-dihydro-5-oxa-7a-azadibenzo[a,e]azulene-9-carboxamide], the half-maximal inhibitory concentration (IC50) was less than 0.1 µM.

Take `COc1ccc2c(c1)OCCn1c-2c(C2CCCCC2)c2ccc(C(=O)N[C@@H](Cc3ccc(O)cc3)c3nccs3)cc21` [Example 2-381, N—(S)-[2-(4-hydroxyphenyl)-1-(thiazol-2-yl)ethyl]-12-cyclohexyl-3-methoxy-6,7-dihydro-5-oxa-7a-azadibenzo[a,e]azulene-9-carboxamide]: the 50% inhibitory concentration (IC50) is less than 0.1 µM.

The compound `CNC(=O)COc1ccc(C[C@H](NC(=O)c2ccc3c(C4CCCCC4)c4n(c3c2)CCOc2cc(OC)ccc2-4)C(=O)OC)cc1` [Example 2-382, methyl (S)-2-[(12-cyclohexyl-3-methoxy-6,7-dihydro-5-oxa-7a-azadibenzo[a,e]azulene-9-carbonyl)amino]-3-[4-(methylcarbamoylmethoxy)phenyl]propionate] returned an IC50 of less than 0.1 µM. In the case of `COC(=O)[C@H](Cc1ccc(OCC(=O)N(C)C)cc1)NC(=O)c1ccc2c(C3CCCCC3)c3n(c2c1)CCOc1cc(OC)ccc1-3` [Example 2-383, methyl (S)-2-[(12-cyclohexyl-3-methoxy-6,7-dihydro-5-oxa-7a-azadibenzo[a,e]azulene-9-carbonyl)amino]-3-[4-(dimethylcarbamoylmethoxy)phenyl]propionate], the half-maximal inhibitory concentration (IC50) is less than 0.1 µM. Same read-out and setting: the figure for `CNC(=O)[C@H](Cc1ccc(NC(=O)OC)cc1)NC(=O)c1ccc2c(C3CCCCC3)c3n(c2c1)CCOc1cc(OC)ccc1-3` [Example 2-384, methyl (4-{(S)-2-[(12-cyclohexyl-3-methoxy-6,7-dihydro-5-oxa-7a-azadibenzo[a,e]azulene-9-carbonyl)amino]-2-(methylcarbamoyl)ethyl}phenyl)carbamate] is less than 0.1 µM. On to `COc1ccc2c(c1)OCCn1c-2c(C2CCCCC2)c2ccc(C(=O)N[C@@H](Cc3c[nH]c4ccc(O)cc34)c3csc(C)n3)cc21` [Example 2-385, [(S)-2-(5-hydroxy-1H-indol-3-yl)-1-(2-methylthiazol-4-yl)ethyl]-12-cyclohexyl-3-methoxy-6,7-dihydro-5-oxa-7a-azadibenzo[a,e]azulene-9-carboxamide], for which the IC50 (25° C., 90 min, [5,6-3H]UTP incorporation into RNA, read-out: HCV polymerase inhibitory activity IC50) was less than 0.1 µM. `COc1ccc2c(c1)OCCn1c-2c(C2CCCCC2)c2ccc(C(=O)NC(C)(C)c3nc4cc(C(=O)N5CCC(O)CC5)ccc4[nH]3)cc21` [Example 2-386, N-{1-[5-(4-hydroxypiperidine-1-carbonyl)-1H-benzimidazol-2-yl]-1-methylethyl}-12-cyclohexyl-3-methoxy-6,7-dihydro-5-oxa-7a-azadibenzo[a,e]azulene-9-carboxamide]: the concentration for half-maximal inhibition (IC50) is less than 0.1 µM. On the same count and under the same terms, the value for `COc1ccc2c(c1)OCCn1c-2c(C2CCCCC2)c2ccc(C(=O)N[C@@H](Cc3ccc(O)cc3)C(=O)NCCO)cc21` [Example 2-387, N—[(S)-1-(2-hydroxyethylcarbamoyl)-2-(4-hydroxyphenyl)ethyl]-12-cyclohexyl-3-methoxy-6,7-dihydro-5-oxa-7a-azadibenzo[a,e]azulene-9-carboxamide] was less than 0.1 µM. `COc1ccc2c(c1)OCCn1c-2c(C2CCCCC2)c2ccc(C(=O)N[C@@H](Cc3ccc(O)cc3)c3nc(C)no3)cc21` [Example 2-388, N—[(S)-2-(4-hydroxyphenyl)-1-(3-methyl-1,2,4-oxadiazol-5-yl)ethyl]-12-cyclohexyl-3-methoxy-6,7-dihydro-5-oxa-7a-azadibenzo[a,e]azulene-9-carboxamide] had a half-inhibitory concentration (IC50) of less than 0.1 µM.

As to `COc1ccc2c(c1)OCCn1c-2c(C2CCCCC2)c2ccc(C(=O)N[C@@H](Cc3ccc(O)cc3)C(=O)NCCN(C)C)cc21` [Example 2-389, N—[(S)-1-(2-dimethylaminoethylcarbamoyl)-2-(4-hydroxyphenyl)ethyl]-12-cyclohexyl-3-methoxy-6,7-dihydro-5-oxa-7a-azadibenzo[a,e]azulene-9-carboxamide], the IC50 is less than 0.1 µM.

The compound `COc1ccc2c(c1)OCCn1c-2c(C2CCCCC2)c2ccc(C(=O)NC(C)(C)c3nc4cc(C(=O)NCCO)ccc4[nH]3)cc21` [Example 2-390, N-{1-[5-(2-hydroxyethylcarbamoyl)-1H-benzimidazol-2-yl]-1-methylethyl}-12-cyclohexyl-3-methoxy-6,7-dihydro-5-oxa-7a-azadibenzo[a,e]azulene-9-carboxamide] came in with an IC50 of less than 0.1 µM. The compound `COC(=O)[C@H](Cc1ccc(NC(=O)N(C)C)cc1)NC(=O)c1ccc2c(C3CCCCC3)c3n(c2c1)CCOc1cc(OC)ccc1-3` [Example 2-391, methyl (S)-2-[(12-cyclohexyl-3-methoxy-6,7-dihydro-5-oxa-7a-azadibenzo[a,e]azulene-9-carbonyl)amino]-3-[4-(3,3-dimethylureido)phenyl]propionate] showed a concentration for half-maximal inhibition (IC50) of less than 0.1 µM. Still for that read-out and setting: the value for `COC(=O)[C@H](Cc1ccc(OCCCO)cc1)NC(=O)c1ccc2c(C3CCCCC3)c3n(c2c1)CCOc1cc(OC)ccc1-3` [Example 2-392, methyl (S)-2-[(12-cyclohexyl-3-methoxy-6,7-dihydro-5-oxa-7a-azadibenzo[a,e]azulene-9-carbonyl)amino]-3-[4-(3-hydroxypropoxy)phenyl]propionate] was less than 0.1 µM. Consider `COC(=O)C(Cc1ccc(CO)cc1)NC(=O)c1ccc2c(C3CCCCC3)c3n(c2c1)CCOc1cc(OC)ccc1-3` (stereo not drawn) [Example 2-393, methyl 2-[(12-cyclohexyl-3-methoxy-6,7-dihydro-5-oxa-7a-azadibenzo[a,e]azulene-9-carbonyl)amino]-3-(4-hydroxymethylphenyl)propionate], for which the IC50 is less than 0.1 µM.

Regarding `COc1ccc2c(c1)OCCn1c-2c(C2CCCCC2)c2ccc(C(=O)NC(C)(C)c3nc4cccnc4[nH]3)cc21` [Example 2-394, N-[1-(3H-imidazo[4,5-b]pyridin-2-yl)-1-methylethyl]-12-cyclohexyl-3-methoxy-6,7-dihydro-5-oxa-7a-azadibenzo[a,e]azulene-9-carboxamide], the IC50 is less than 0.1 µM. On the same count and under the same terms, the value for `COc1ccc2c(c1)OCCn1c-2c(C2CCCCC2)c2ccc(C(=O)NC(C)(C)c3nc4cc(C(=O)O)ccc4n3CCN3CCOCC3)cc21` [Example 2-395, 2-{1-[(12-cyclohexyl-3-methoxy-6,7-dihydro-5-oxa-7a-azadibenzo[a,e]azulene-9-carbonyl)amino]-1-methylethyl]-1-[2-(morpholin-4-yl)ethyl]-1H-benzimidazole-5-carboxylic acid] was less than 0.1 µM.

Take `CNC(=O)c1ccc2[nH]c(C(C)(C)NC(=O)c3ccc4c(C5CCCCC5)c5n(c4c3)CCOc3cc(OC)ccc3-5)nc2c1` [Example 2-396, N-[1-methyl-1-(5-methylcarbamoyl-1H-benzimidazol-2-yl)ethyl]-12-cyclohexyl-3-methoxy-6,7-dihydro-5-oxa-7a-azadibenzo[a,e]azulene-9-carboxamide]: the concentration for half-maximal inhibition (IC50) is less than 0.1 µM. With `COc1ccc2c(c1)OCCn1c-2c(C2CCCCC2)c2ccc(C(=O)NC3(C(=O)Nc4ccc(C(=O)O)cc4)CCN(C)CC3)cc21` [Example 2-397, 4-([4-[(12-cyclohexyl-3-methoxy-6,7-dihydro-5-oxa-7a-azadibenzo[a,e]azulene-9-carbonyl)amino]-1-methylpiperidine-4-carbonyl)amino)benzoic acid], the IC50 is less than 0.1 µM. `CCOC(=O)c1ccc(-c2cnc(C(C)(C)NC(=O)c3ccc4c(C5CCCCC5)c5n(c4c3)CCOc3cc(OC)ccc3-5)[nH]2)cc1` [Example 2-398, ethyl 4-(2-{1-[(12-cyclohexyl-3-methoxy-6,7-dihydro-5-oxa-7a-azadibenzo[a,e]azulene-9-carbonyl)amino]-1-methylethyl}-3H-imidazol-4-yl)benzoate]: the IC50 is less than 0.1 µM.
